In article PMC6696238, “Novel Benzothiazole-Based Ureas as 17β-HSD10 Inhibitors, A Potential Alzheimer’s Disease Treatment” (Molecules, 2019):

Experiments:
17β-HSD10 = target: T1, 17β-HSD10 (Homo sapiens, UniProt Q99714); test: recombinant 17β-HSD10 enzyme activity assay (primary NADH screen and dose response); format: biochemical; design: made in house; conditions: relative remaining activity, 25 μM compound, six independent measurements ± SEM; read-out: 17β-HSD10 activity in the presence of compound at 25 μM (Primary Screen)
T1 sequence (Q99714 1-261): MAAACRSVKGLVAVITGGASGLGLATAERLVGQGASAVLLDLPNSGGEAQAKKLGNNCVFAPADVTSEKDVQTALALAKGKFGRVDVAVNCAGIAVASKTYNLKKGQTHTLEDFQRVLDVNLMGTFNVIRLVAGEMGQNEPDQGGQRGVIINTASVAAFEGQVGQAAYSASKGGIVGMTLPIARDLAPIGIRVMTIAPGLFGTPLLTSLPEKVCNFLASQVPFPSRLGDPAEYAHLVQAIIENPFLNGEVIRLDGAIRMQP
From the text: In order to reduce attrition rates and improve assay reproducibility we have developed a high throughput screening (HTS) pipeline (Figure 3 [19]). In brief, compounds are screened in the recombinant 17β-HSD10 enzyme activity assay (Table 5, Figure 4). Our best previously published compounds have set the threshold of 40% remaining 17β-HSD10 activity as a minimum standard and if compounds can better this threshold, they are further screened using our orthogonal counter assays, dose response assays and kinetic assessment (Table 5). Finally, if passing these criteria with favourable characteristics, the compounds progress into cellular evaluation through cytotoxicity testing and measuring 17β-HSD10 activity within cells (Table 6).
Full results for the primary nicotinamide adenine dinucleotide (NADH) assay screens are shown in Figure 4 including our four best previously published compounds for comparison (Figure 1).
Purification of 17β-HSD10 protein was performed as described in our previous work.
Compound screening, dose response and mechanism of inhibition experiments were performed as described in Hroch et al. 2016, with the exceptions being an alteration in assay buffer (10 mM Tris HCl (pH 7.4), 150 mM NaCl, 1 mM DTT, 0.005% Tween20, 0.01% BSA) and a change in temperature to 25 °C, to improve enzyme stability and assay reliability as compound solubility improved, as outlined in our previous work.

Compound	melting point	remaining activity at 25 µM (17β-HSD10) [%]
COc1ccc2nc(NC(=O)Nc3ccc(O)c(C)c3)sc2c1 [Compound 2, 1-(4-Hydroxy-3-methylphenyl)-3-(6-methoxybenzo[d]thiazol-2-yl)urea]	262 to 263 °C	52.2 ± 3.67
COc1ccc2nc(NC(=O)Nc3ccc(O)c(C(C)(C)C)c3)sc2c1 [Compound 3, 1-(3-(Tert-butyl)-4-hydroxyphenyl)-3-(6-methoxybenzo[d]thiazol-2-yl)urea]	259 to 260 °C	41 ± 0.45
COc1ccc2nc(NC(=O)Nc3ccc(O)c(C#N)c3)sc2c1 [Compound 4, 1-(3-Cyano-4-hydroxyphenyl)-3-(6-methoxybenzo[d]thiazol-2-yl)urea]	277 to 279 °C	96.5 ± 2.03
COc1ccc2nc(NC(=O)Nc3ccc(O)c(N)c3)sc2c1 [Compound 7, 1-(3-Amino-4-hydroxyphenyl)-3-(6-methoxybenzo[d]thiazol-2-yl)urea]	180 to 181 °C	82.5 ± 2.39
COc1ccc2nc(NC(=O)Nc3ccc(O)nc3)sc2c1 [Compound 8, 1-(6-Hydroxypyridin-3-yl)-3-(6-methoxybenzo[d]thiazol-2-yl)urea]	272 to 273 °C	63.3 ± 3.42
COc1ccc2nc(NC(=O)Nc3ccc(N)cc3)sc2c1 [Compound 9, 1-(4-Aminophenyl)-3-(6-methoxybenzo[d]thiazol-2-yl)urea]	304 to 306 °C (dec.)	105 ± 3.17
COc1ccc2nc(NC(=O)Nc3ccc(N)c(Cl)c3)sc2c1 [Compound 10, 1-(4-Amino-3-chlorophenyl)-3-(6-methoxybenzo[d]thiazol-2-yl)urea]	310 to 311 °C (dec.)	117 ± 3.94
COc1ccc2nc(NC(c3ccc(F)cc3)P(=O)(OC)OC)sc2c1 (stereo not drawn) [Compound 34, Dimethyl ((4-fluorophenyl)((6-methoxybenzo[d]thiazol-2-yl)amino)methyl) phosphonate, reference compound]		95.4 ± 1.16
COc1ccc2nc(NC(c3ccc(O)cc3)P(=O)(OC)OC)sc2c1 (stereo not drawn) [Compound 35, Dimethyl ((4-hydroxyphenyl)((6-methoxybenzo[d]thiazol-2-yl)amino)methyl) phosphonate, reference compound]		96.6 ± 1.35
COC(=O)c1cc(C(Nc2nc3ccc(OC)cc3s2)P(=O)(OC)OC)ccc1O (stereo not drawn) [Compound 36, Methyl 5-((dimethoxyphosphoryl)((6-methoxybenzo[d]thiazol-2-yl)amino)methyl)-2-hydroxybenzoate, reference compound]		95.9 ± 2.09
COc1ccc2nc(NC(c3ccc(O)c(Cl)c3)P(=O)(OC)OC)sc2c1 (stereo not drawn) [Compound 37, Dimethyl ((3-chloro-4-hydroxyphenyl)((6-methoxybenzo[d]thiazol-2-yl)amino)methyl) phosphonate]	198 to 199 °C	97.83 ± 0.88

Second part, the compound after the results:

melting point	remaining activity at 25 µM (17β-HSD10) [%]	Compound
229 to 230 °C	110 ± 3.8	COc1ccc2nc(NC(=O)Nc3ccc(CO)c(Cl)c3)sc2c1 [Compound 11, 1-(3-Chloro-4-(hydroxymethyl)phenyl)-3-(6-methoxybenzo[d]thiazol-2-yl)urea]
213 to 214.5 °C	120 ± 13.5	Oc1ccc(Nc2nc3ccc(Cl)cc3s2)cc1Cl [Compound 23, 2-Chloro-4-((6-chlorobenzo[d]thiazol-2-yl)amino)phenol]
	105 ± 4.99	COc1ccc2nc(NC(=O)c3ccc(O)c(Cl)c3)sc2c1 [Compound 26]
249 to 251 °C	101 ± 4.6	COc1ccc2nc(NC(=O)NCc3ccc(O)c(Cl)c3)sc2c1 [Compound 28, 1-(3-Chloro-4-hydroxybenzyl)-3-(6-methoxybenzo[d]thiazol-2-yl)urea]
141.5 to 142 °C	63.5 ± 2.58	COc1ccc2nc(NC(=O)NCc3ccc(O)c(O)c3)sc2c1 [Compound 29, 1-(3,4-Dihydroxybenzyl)-3-(6-methoxybenzo[d]thiazol-2-yl)urea]
171 to 172 °C	106 ± 20.9	CN(C(=O)Nc1ccc(O)c(Cl)c1)c1nc2ccccc2s1 [Compound 41, 1-(Benzo[d]thiazol-2-yl)-3-(3-chloro-4-hydroxyphenyl)-1-methylurea]
139 to 141 °C	77.3 ± 1.43	CN(C(=O)Nc1nc2ccccc2s1)c1ccc(O)c(Cl)c1 [Compound 45, 3-(Benzo[d]thiazol-2-yl)-1-(3-chloro-4-hydroxyphenyl)-1-methylurea]
220 °C (dec.)	97.8 ± 1.32	COc1ccc2nc(NC(=O)N(C)c3ccc(O)c(Cl)c3)sc2c1 [Compound 46, 1-(3-Chloro-4-hydroxyphenyl)-3-(6-methoxybenzo[d]thiazol-2-yl)-1-methylurea]
227 to 228.5 °C	105 ± 2.21	CN(C(=O)N(C)c1nc2ccccc2s1)c1ccc(O)c(Cl)c1 [Compound 49, 1-(Benzo[d]thiazol-2-yl)-3-(3-chloro-4-hydroxyphenyl)-1,3-dimethylurea]
258 to 260 °C	55.8 ± 1.54	O=C(Nc1ccc(O)c(Cl)c1)Nc1nc2c(s1)CCCC2 [Compound 71, 1-(3-Chloro-4-hydroxyphenyl)-3-(4,5,6,7-tetrahydrobenzo[d]thiazol-2-yl)urea]
203 to 205 °C	79.2 ± 2.56	O=C(Nc1ccc(O)c(Cl)c1)NC1Cc2ccccc2C1 [Compound 72, 1-(3-Chloro-4-hydroxyphenyl)-3-(2,3-dihydro-1H-inden-2-yl)urea]
206 to 208 °C	102 ± 3.65	O=C(Nc1ccc(O)c(Cl)c1)Nc1nc(-c2ccc(Cl)cc2)cs1 [Compound 73, 1-(3-Chloro-4-hydroxyphenyl)-3-(4-(4-chlorophenyl)thiazol-2-yl)urea]
220 to 222 °C	74.5 ± 0.63	O=C(Nc1ccc(O)c(Cl)c1)Nc1nccs1 [Compound 74, 1-(3-Chloro-4-hydroxyphenyl)-3-(thiazol-2-yl)urea]
161.5 to 163.5 °C	73.3 ± 4.33	COc1ccc(CCNC(=O)Nc2ccc(O)c(Cl)c2)cc1 [Compound 75, 1-(3-Chloro-4-hydroxyphenyl)-3-(4-methoxyphenethyl)urea]
224 to 226 °C	43.8 ± 0.77	O=C(Nc1ccc(O)c(Cl)c1)Nc1ccc2ncsc2c1 [Compound 76, 1-(Benzo[d]thiazol-6-yl)-3-(3-chloro-4-hydroxyphenyl)urea]
